Results as given in ChEMBL document CHEMBL3414474, “Design and synthesis of piperidine derivatives as novel human heat shock protein 70 inhibitors for the treatment of drug-resistant tumors” (Eur J Med Chem, 2015).
The source made the active and inactive calls. The rule behind the calls is not given here.

Legend:
[1] = Growth inhibition of human BT474 cells at 5 uM incubated for 72 hrs by ATP detection based luminescent assay; assay type: functional; settings: BT-474, 72 h, read-out: GI
COLO 205 = test: Growth inhibition of human COLO205 cells at 0.016 to 4 uM incubated for 72 hrs by ATP detection based luminescent assay; assay type: functional, cell-based
MDA-MB-361 = test: Growth inhibition of human MDA-MB-361 cells at 5 uM incubated for 72 hrs by ATP detection based luminescent assay; assay type: functional; settings: MDA-MB-361, 72 h, read-out: GI
[2] = Growth inhibition of human SKBR3 cells at 5 uM incubated for 72 hrs by ATP detection based luminescent assay; assay type: functional; settings: SK-BR-3, 72 h, read-out: GI
NCI-N87 = test: Growth inhibition of human NCI-N87 cells at 0.016 to 4 uM incubated for 72 hrs by ATP detection based luminescent assay; assay type: functional, cell-based
Homo sapiens = species: Homo sapiens; test: Inhibition of HSP70 (unknown origin) at 200 uM pre-incubated for 30 mins followed by ATP addiction and measured after 3 hrs by malachite green reagent based colorimetric assay
[3] = Growth inhibition of human BT474 cells incubated for 72 hrs by ATP detection based luminescent assay; assay type: functional, cell-based; settings: BT-474, 72 h
[4] = Growth inhibition of human WI38 cells at 0.016 to 4 uM incubated for 72 hrs by ATP detection based luminescent assay; assay type: cell-based; settings: wi-38, 72 h
Huh-7 = test: Growth inhibition of human HuH7 cells at 0.016 to 4 uM incubated for 72 hrs by ATP detection based luminescent assay; assay type: functional, cell-based
HT-29 = test: Growth inhibition of human HT-29 cells at 0.016 to 4 uM incubated for 72 hrs by ATP detection based luminescent assay; assay type: functional, cell-based
HepG2 = test: Growth inhibition of human HepG2 cells at 0.016 to 4 uM incubated for 72 hrs by ATP detection based luminescent assay; assay type: functional, cell-based
NCI-H460 = test: Growth inhibition of human H460 cells at 0.016 to 4 uM incubated for 72 hrs by ATP detection based luminescent assay; assay type: functional, cell-based
MIA PaCa-2 = test: Growth inhibition of human MIAPaCa2 cells at 0.016 to 4 uM incubated for 72 hrs by ATP detection based luminescent assay; assay type: functional, cell-based
A549 = test: Growth inhibition of human A549 cells at 0.016 to 4 uM incubated for 72 hrs by ATP detection based luminescent assay; assay type: functional, cell-based
[5] = Growth inhibition of human BT/LapR1.0 cells at 5 uM incubated for 72 hrs by ATP detection based luminescent assay; assay type: functional; settings: read-out: GI
[6] = Growth inhibition of human SK/LapR1.0 cells at 5 uM incubated for 72 hrs by ATP detection based luminescent assay; assay type: functional; settings: read-out: GI
MDA-MB-453 = test: Growth inhibition of human MDA-MB-453 cells at 5 uM incubated for 72 hrs by ATP detection based luminescent assay; assay type: functional; settings: MDA-MB-453, 72 h, read-out: GI
[7] = Growth inhibition of human BT/LapR1.0 cells incubated for 72 hrs by ATP detection based luminescent assay; assay type: functional
MRC5 = test: Growth inhibition of human MRC5 cells at 0.016 to 4 uM incubated for 72 hrs by ATP detection based luminescent assay; assay type: cell-based; settings: mrc5, 72 h
ASPC1 = test: Growth inhibition of human AsPC1 cells at 0.016 to 4 uM incubated for 72 hrs by ATP detection based luminescent assay; assay type: functional, cell-based
BGC-823 = test: Growth inhibition of human BGC823 cells at 0.016 to 4 uM incubated for 72 hrs by ATP detection based luminescent assay; assay type: functional, cell-based
Mus musculus [8] = test: Acute toxicity in female KM mouse assessed as induction of organ abnormalities mortality at 520 to 1555 mg/kg dosed as single oral gavage measured during day 1 to day 14 post dose; assay type: organism-based; design: dose 520-1555 mg/kg, route oral; settings: in vivo
Mus musculus [9] = test: Acute toxicity in male KM mouse assessed as mouse mortality at 1555 mg/kg dosed as single oral gavage measured after 5 mins during day 1 to day 14 post dose; assay type: organism-based; design: dose 1555 mg/kg, route oral; settings: in vivo
Mus musculus [10] = test: Acute toxicity in female KM mouse assessed as mouse mortality at 1296 mg/kg dosed as single oral gavage measured during day 1 to day 14 post dose; assay type: organism-based; design: dose 1296 mg/kg, route oral; settings: in vivo
Mus musculus [11] = test: Acute toxicity in male KM mouse assessed as mouse mortality at 1080 mg/kg dosed as single oral gavage measured during day 1 to day 14 post dose; assay type: organism-based; design: dose 1080 mg/kg, route oral; settings: in vivo
Mus musculus [12] = test: Acute toxicity in female KM mouse assessed as mouse mortality at 520 mg/kg dosed as single oral gavage measured during day 1 to day 14 post dose; assay type: organism-based; design: dose 520 mg/kg, route oral; settings: in vivo
[13] = Binding affinity to human HSP70 at 25 degC by surface plasmon resonance assay
Mus musculus [14] = test: Acute toxicity in female KM mouse assessed as mouse mortality at 625 mg/kg dosed as single oral gavage measured during day 1 to day 14 post dose; assay type: organism-based; design: dose 625 mg/kg, route oral; settings: in vivo
Mus musculus [15] = test: Acute toxicity in male KM mouse assessed as induction of organ abnormalities mortality at 520 to 1555 mg/kg dosed as single oral gavage measured during day 1 to day 14 post dose; assay type: organism-based; design: dose 520-1555 mg/kg, route oral; settings: in vivo
Mus musculus [16] = test: Acute toxicity in female KM mouse assessed as mouse mortality at 1555 mg/kg dosed as single oral gavage measured after 5 mins during day 1 to day 14 post dose; assay type: organism-based; design: dose 1555 mg/kg, route oral; settings: in vivo
Mus musculus [17] = test: Acute toxicity in male KM mouse assessed as mouse mortality at 520 mg/kg dosed as single oral gavage measured during day 1 to day 14 post dose; assay type: organism-based; design: dose 520 mg/kg, route oral; settings: in vivo

Structure (SMILES) | inhibition (Homo sapiens) [%] | inhibition of growth at 5 µM [1] [%] | growth inhibition (GI) (COLO 205) | inhibition of growth at 5 µM (MDA-MB-361) [%] | inhibition of growth at 5 µM [2] [%] | growth inhibition (GI) (NCI-N87) | IC50 [3] [µM] | growth inhibition (GI) [4] | growth inhibition (GI) (Huh-7) | growth inhibition (GI) (HT-29) | growth inhibition (GI) (HepG2) | growth inhibition (GI) (NCI-H460) | growth inhibition (GI) (MIA PaCa-2) | growth inhibition (GI) (A549) | inhibition of growth at 5 µM [5] [%] | inhibition of growth at 5 µM [6] [%] | IC50 [7] [µM] | growth inhibition (GI) (MRC5) | growth inhibition (GI) (ASPC1) | growth inhibition (GI) (BGC-823) | other results
CSc1nccc(N2CCC(N(C)Cc3c(Cl)cccc3Cl)CC2)n1 | 12.8 | 73.1 | Active | 53.2 | 85.9 | Active | 0.78 | Non-toxic | Active | Active | Active | Active | Active | Active | 70 | 71 | 0.7 | Non-toxic | Active | Active | inhibition of growth at 5 µM (MDA-MB-453): 79.2%
CSc1nccc(N2CCC(N(C)Cc3c(F)cccc3Cl)CC2)n1 | 20.4 | – | Active | – | – | Active | 1.04 | Non-toxic | Active | Active | Active | Active | Active | Active | – | – | 0.94 | Non-toxic | Active | Active | –
CSc1nccc(N2CCC(N(C)Cc3ccc(C#N)cc3)CC2)n1 | 8.14 | 75.5 | Active | 46.9 | 83.4 | Active | 1.41 | Non-toxic | Active | Active | Active | Active | Active | Active | 76.2 | 86.1 | 1.47 | Non-toxic | Active | Active | Activity (Mus musculus [8]): Non-toxic; Activity (Mus musculus [9]): Toxic; Activity (Mus musculus [10]): Toxic; Activity (Mus musculus [11]): Toxic; Activity (Mus musculus [12]): Non-toxic; Kd [13]: 0.246 µM; Activity (Mus musculus [14]): Non-toxic; inhibition of growth at 5 µM (MDA-MB-453): 82.4%; Activity (Mus musculus [15]): Non-toxic; Activity (Mus musculus [16]): Toxic; Activity (Mus musculus [17]): Non-toxic

Second part, led by results:

inhibition (Homo sapiens) [%] | Structure (SMILES) | inhibition of growth at 5 µM [1] [%] | growth inhibition (GI) (COLO 205) | inhibition of growth at 5 µM (MDA-MB-361) [%] | inhibition of growth at 5 µM [2] [%] | growth inhibition (GI) (NCI-N87) | IC50 [3] [µM] | growth inhibition (GI) [4] | growth inhibition (GI) (Huh-7) | growth inhibition (GI) (HT-29) | growth inhibition (GI) (HepG2) | growth inhibition (GI) (NCI-H460) | growth inhibition (GI) (MIA PaCa-2) | growth inhibition (GI) (A549) | inhibition of growth at 5 µM [5] [%] | inhibition of growth at 5 µM [6] [%] | IC50 [7] [µM] | growth inhibition (GI) (MRC5) | growth inhibition (GI) (ASPC1) | growth inhibition (GI) (BGC-823) | other results
8.28 | CSc1nccc(N2CCC(N(C)Cc3ccc(Cl)cc3Cl)CC2)n1 | – | Active | – | – | Active | 1.62 | Non-toxic | Active | Active | Active | Active | Active | Active | – | – | 1.68 | Non-toxic | Active | Active | –
11.6 | CSc1nccc(N2CCC(N(C)Cc3ccccc3Cl)CC2)n1 | 21.3 | Active | 36.2 | 22.2 | Active | 1.99 | Non-toxic | Active | Active | Active | Active | Active | Active | 17.5 | 34.2 | 1.7 | Non-toxic | Active | Active | inhibition of growth at 5 µM (MDA-MB-453): 45.3%
